The values below come from US20240066037A1 (priority 2020, published 2024).

For data set [1], the system named is SARS-CoV-1 (Toronto 2). Kind of data set: microbe, parasite or virus in culture. It is filed as cell-based. The settings on record: for IC50: Severe acute respiratory syndrome coronavirus, Vero C1008, 72 h, read-out: Antiviral IC50.
Data set [2] deals with SARS-CoV-2 (USA_WA1/2020). Put plainly: microbe, parasite or virus in culture. It is filed as cell-based. Particulars: for IC50: Severe acute respiratory syndrome coronavirus 2, Vero C1008, 72 h, read-out: Antiviral IC50.
Data set [3] has as its system MERS (EMC/2012). Kind of data set: microbe, parasite or virus in culture. It counts as cell-based. The settings on record: for IC50: Middle East respiratory syndrome-related coronavirus.
Data set [4] is described as follows: in vitro. The settings on record: African green monkey.
The test system of data set [5] is SARS-CoV-2 (βCoV/KOR/KCDC03/2020). Put plainly: microbe, parasite or virus in culture. It is filed as cell-based. The settings on record: for IC50: Severe acute respiratory syndrome coronavirus 2, Calu-3, 24 h.
The test system of data set [6] is EBOV (Kikwit). Kind of data set: microbe, parasite or virus in culture. It counts as cell-based. Particulars: Zaire ebolavirus, Vero.
Data set [7] concerns EBOV (Makona). Kind of data set: microbe, parasite or virus in culture. It is filed as cell-based. The settings on record: Zaire ebolavirus, HeLa.
In data set [8] the test system is EBOV (Makona). Put plainly: microbe, parasite or virus in culture. The settings on record: Zaire ebolavirus, Vero. It counts as cell-based.
The test system of data set [9] is MARV. Put plainly: organism not typed. Particulars: HeLa. It counts as cell-based.
For data set [10], the system named is MERS-CoV. Put plainly: microbe, parasite or virus in culture. It counts as cell-based. The settings on record: Middle East respiratory syndrome-related coronavirus, MRC5.
Data set [11] deals with NiV. Kind of data set: organism not typed. It counts as cell-based. The settings on record: HeLa.
In data set [12] the test system is LASV. Put plainly: organism not typed. It is filed as cell-based. Particulars: HeLa.
For data set [13], the system named is HTNV. Kind of data set: organism not typed. Particulars: Vero. It counts as cell-based.
Data set [14] deals with WNV. Kind of data set: microbe, parasite or virus in culture. It is filed as cell-based. The settings on record: West Nile virus, HeLa.
Data set [15] concerns SARS-CoV-2. It is filed as cell-based.
Data set [16] has as its target Cat V (L2) (Homo sapiens, UniProt O60911). The settings on record: cited from earlier work.
Data set [17] concerns EBOV. Particulars: rhesus monkey, in vivo.
Data set [18] deals with Cat G (Homo sapiens, UniProt P08311). Particulars: cited from earlier work.
Cat G, sequence (P08311 21-244): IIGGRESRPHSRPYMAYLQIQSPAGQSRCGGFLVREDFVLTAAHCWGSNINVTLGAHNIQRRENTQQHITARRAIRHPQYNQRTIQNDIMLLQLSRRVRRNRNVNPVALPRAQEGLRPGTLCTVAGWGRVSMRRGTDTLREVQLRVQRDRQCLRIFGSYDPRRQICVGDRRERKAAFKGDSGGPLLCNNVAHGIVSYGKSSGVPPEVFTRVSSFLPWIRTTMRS
Data set [19] concerns the target Cat D (Homo sapiens, UniProt P07339). The settings on record: cited from earlier work.
Data set [20] deals with Calpain. The settings on record: cited from earlier work.
For data set [21], the target named is Caspase 3-4. The settings on record: cited from earlier work.
In data set [22] the target is Cat K (Macaca fascicularis, UniProt P61276). Particulars: cited from earlier work.
Cat K (Macaca fascicularis, UniProt P61276), sequence (P61276 115-329): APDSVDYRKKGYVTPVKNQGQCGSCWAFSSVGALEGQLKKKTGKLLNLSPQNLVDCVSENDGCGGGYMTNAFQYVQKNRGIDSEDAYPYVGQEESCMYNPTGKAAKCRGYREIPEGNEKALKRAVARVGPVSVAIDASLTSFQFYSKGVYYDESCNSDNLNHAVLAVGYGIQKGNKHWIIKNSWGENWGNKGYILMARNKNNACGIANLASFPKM
The target in data set [23] is Cat L. The settings on record: cited from earlier work.
In data set [24] the target is Cat V (L2). The settings on record: cited from earlier work.
Data set [25] addresses Cat L (Rattus norvegicus, UniProt P07154). Particulars: cited from earlier work.
Data set [26] deals with Cat S (Rattus norvegicus, UniProt Q02765). The settings on record: cited from earlier work.
Cat S, sequence (Q02765 113-330): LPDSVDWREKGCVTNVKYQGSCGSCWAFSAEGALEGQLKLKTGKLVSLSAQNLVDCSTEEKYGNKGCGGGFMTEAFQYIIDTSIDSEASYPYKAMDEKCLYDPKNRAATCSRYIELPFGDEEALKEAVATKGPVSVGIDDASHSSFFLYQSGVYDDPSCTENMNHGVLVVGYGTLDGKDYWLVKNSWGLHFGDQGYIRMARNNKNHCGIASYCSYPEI
Data set [27] addresses Cat K (Mus musculus, UniProt P55097). Particulars: cited from earlier work.
Data set [28] has as its target Cat L (Mus musculus, UniProt P06797). The settings on record: cited from earlier work.
Data set [29] is described as follows: in vitro. The settings on record: Syrian hamster.
Where [30] appears, read: Vero C1008, read-out: Antiviral IC50 (std-incubation).
Setting [31] is: Vero C1008, read-out: pre-incubation IC50.

Read-outs that look alike come from different tables or passages of the source.

Cat V (L2) (Homo sapiens, UniProt O60911), sequence (O60911 114-334): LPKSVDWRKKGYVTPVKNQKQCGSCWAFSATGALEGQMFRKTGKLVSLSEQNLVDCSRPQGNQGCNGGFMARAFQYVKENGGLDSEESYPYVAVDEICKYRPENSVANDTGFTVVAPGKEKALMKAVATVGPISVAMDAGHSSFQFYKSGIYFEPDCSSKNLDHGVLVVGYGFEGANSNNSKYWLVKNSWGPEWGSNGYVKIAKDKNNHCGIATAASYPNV
Cat L (Rattus norvegicus, UniProt P07154), sequence (P07154 114-334): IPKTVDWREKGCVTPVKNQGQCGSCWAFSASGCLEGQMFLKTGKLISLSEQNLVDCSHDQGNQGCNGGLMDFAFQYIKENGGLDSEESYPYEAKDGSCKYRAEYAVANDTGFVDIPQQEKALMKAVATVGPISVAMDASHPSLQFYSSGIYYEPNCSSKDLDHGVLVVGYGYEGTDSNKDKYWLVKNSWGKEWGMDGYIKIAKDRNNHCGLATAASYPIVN
Cat K (Mus musculus, UniProt P55097), sequence (P55097 115-329): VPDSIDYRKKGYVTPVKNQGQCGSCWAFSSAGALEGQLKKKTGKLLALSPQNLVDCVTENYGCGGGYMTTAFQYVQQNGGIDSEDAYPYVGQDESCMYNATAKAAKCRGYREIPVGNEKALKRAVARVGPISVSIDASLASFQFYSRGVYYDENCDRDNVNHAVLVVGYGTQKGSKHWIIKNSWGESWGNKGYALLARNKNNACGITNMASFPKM
Cat D, sequence (P07339 65-412): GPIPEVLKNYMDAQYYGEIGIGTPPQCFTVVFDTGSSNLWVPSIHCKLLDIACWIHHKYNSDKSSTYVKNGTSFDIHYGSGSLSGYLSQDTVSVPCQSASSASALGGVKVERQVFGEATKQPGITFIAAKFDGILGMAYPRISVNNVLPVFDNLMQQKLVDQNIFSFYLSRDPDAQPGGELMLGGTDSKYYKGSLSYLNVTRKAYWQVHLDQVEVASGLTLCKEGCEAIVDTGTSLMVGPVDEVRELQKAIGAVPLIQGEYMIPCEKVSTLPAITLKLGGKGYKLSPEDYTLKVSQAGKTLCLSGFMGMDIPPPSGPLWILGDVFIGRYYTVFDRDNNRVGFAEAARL
Cat L (Mus musculus, UniProt P06797), sequence (P06797 114-334): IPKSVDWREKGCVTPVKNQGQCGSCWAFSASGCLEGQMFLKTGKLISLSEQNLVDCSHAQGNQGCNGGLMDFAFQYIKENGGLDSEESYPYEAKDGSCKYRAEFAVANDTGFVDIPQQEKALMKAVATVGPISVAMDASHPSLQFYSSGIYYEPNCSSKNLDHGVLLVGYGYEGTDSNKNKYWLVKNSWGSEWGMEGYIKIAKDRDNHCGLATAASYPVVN

By IC50 is commonly meant the point on the concentration scale where inhibition reaches its midpoint. As for `CCN(CC)CCCC(C)Nc1ccnc2cc(Cl)ccc12` (centres unmarked) [Chloroquine], the IC50 is 2020 nM in data set [1], 3710 nM in [2] and 21000 nM in [3] (setting [30]). The same molecule came in with a CC50 in data set [4] of more than 30000 nM.

With `CCC(CC)COC(=O)[C@H](C)N[P@](=O)(OC[C@H]1O[C@@](C#N)(c2ccc3c(N)ncnn23)[C@H](O)[C@@H]1O)Oc1ccccc1` [Remdesivir], the results for the “Selectivity Index CC50/IC50” value in [1], in [2] and in data set [3] were more than 4.0, more than 7.2 and more than 2.4, respectively. Besides, the IC50 in data set [1] was 7420 nM; in [2], 4150 nM; in [3] (setting [30]) it was 12500 nM; in data set [5] (read-out: Exp. 1 IC50), 1940 nM; in [5] (read-out: Exp. 2 IC50), 2150 nM. The CC50 in [4] was more than 30000 nM.

Broadly, the EC50 is the concentration giving half of the maximal effect. What is called EC90 is the concentration needed for an effect of 90%. Regarding `CC(C)C[C@H](NC(=O)c1cc2ccccc2o1)C(=O)N[C@H]1CC[C@@H](C)N(S(=O)(=O)c2ccccn2)CC1=O` [relacatib, N-((2S)-4-methyl-1-(((4S,7R)-7-methyl-3-oxo-1-(pyridin-2-ylsulfonyl)azepan-4-yl)amino)-1-oxopentan-2-yl)benzofuran-2-carboxamide], the EC50 in data set [6] is 2890 nM; in data set [7] it was 360 nM; in [9] it was 250 nM; in data set [10], 40 nM; in [11], 15 nM; in [12], more than 100000 nM. Besides, the EC50 in [13] and in [14] was more than 100000 nM in each case. The EC90 in data set [8] turned out to be 9710 nM. Also, the IC50 in [1] was 230 nM; in data set [2], 20 nM; in [3] (setting [30]), 600 nM; in [3] (setting [31]), 680 nM; in data set [5] (read-out: Exp. 1 IC50), more than 50000 nM; in data set [5] (read-out: Exp. 2 IC50), more than 50000 nM. Further, the “SARS-CoV-2 activity in Calu-3 cells, expression of N protein” value in [5] is recorded as “no measurable SARS-CoV-2 activity”. The “SARS-CoV-2 antiviral activity, titer by plaque assay (FIG. 8A, words)” value in data set [15] is given as “essentially no activity”. The Ki in data set [16] was 0.05 nM; in [16] (read-out: Ki, app), 0.053 nM; in [18], more than 30000 nM; in data set [19], more than 10000 nM; in data set [20] it was 310 nM; in [21], more than 10000 nM. Further, the Ki is 0.04 nM in [22]; 0.3 nM in data set [23]; 0.7 nM in [24]; 0.2 nM in data set [25]; 5.5 nM in data set [26]; 15 nM in data set [27]. The Ki in [28] is 0.2 nM. The “GI pathology in colon (FIG. 5C, words)” value in data set [17] is “enhanced GI pathology noted in colon”. Moreover, in [17] (po), the “Kaplan-Meier survival, P treatment versus vehicle control (Log-rank Mantel-Cox test)” value was 0.0565. Also, the CC50 in data set [29] was more than 20000 nM; in [4], more than 50000 nM.

`CN(C)C(=O)COC(=O)Cc1ccc(OC(=O)c2ccc(NC(=N)N)cc2)cc1` [camostat]: the “Selectivity Index CC50/IC50” value in data set [1], in data set [2] and in data set [3] was more than 1 throughout. For the same molecule, the “antiviral activity” value in [1], in data set [2] and in [3] was “no antiviral activity” throughout. Also, the IC50 in data set [1] is more than 50000 nM; in data set [2] it was more than 50000 nM; in data set [3] (setting [30]), more than 50000 nM; in data set [3] (setting [31]), more than 50000 nM; in data set [5] (read-out: Exp. 1 IC50), 160 nM; in data set [5] (read-out: Exp. 2 IC50) it was 290 nM. The “SARS-CoV-2 activity in Calu-3 cells, expression of N protein” value in data set [5] is on record as “reduced the expression of N protein”. Also, the “SARS-CoV-2 antiviral activity, titer by plaque assay (FIG. 8A, words)” value in data set [15] is recorded as “dose-dependent SARS-CoV-2 antiviral activity”. This molecule showed a CC50 in data set [4] of more than 50000 nM.
